1 compound from ChEMBL document CHEMBL1130964, “Naphthoquinone analogs as inactivators of cdc25 phosphatase” (1998) can be followed below.

Holding throughout (assay type): functional
For assay [1], the system named is SK-HEP1. Kind of assay: The compound was evaluated for the percent cell cycle fraction when human hepatoma SK hep-1 cells were treated with the compound for 12 hours at a concentration of 4 uM in the G1 phase of cell cycle.
Assay [2] deals with SK-HEP1. The experiment in a line: The compound was evaluated for the percent cell cycle fraction when human hepatoma SK hep-1 cells were treated with the compound for 12 hours at a concentration of 4 uM in the G2/M phase of cell cycle.
The species named for assay [3] is Homo sapiens. Kind of assay: The compound was evaluated for the percent cell cycle fraction when human hepatoma SK hep-1 cells were treated with the compound for 24 hours at a concentration of 4 uM in the G1 phase of cell cycle.
In assay [4] the test system is SK-HEP1. Kind of assay: The compound was evaluated for the percent cell cycle fraction when human hepatoma SK hep-1 cells were treated with the compound for 24 hours at a concentration of 4 uM in the S phase of cell cycle.
The test system of assay [5] is SK-HEP1. Kind of assay: The compound was evaluated for the percent cell cycle fraction when human hepatoma SK hep-1 cells were treated with the compound for 0 hr at a concentration of 4 uM in the G1 phase of cell cycle.
For assay [6], the species on record is Homo sapiens. Kind of assay: The compound was evaluated for the percent cell cycle fraction when human hepatoma SK hep-1 cells were treated with the compound for 0 hr at a concentration of 4 uM in the S phase of cell cycle.
Assay [7] is filed under the species Homo sapiens. The experiment in a line: The compound was evaluated for the percent cell cycle fraction when human hepatoma SK hep-1 cells were treated with the compound for 6 hours at a concentration of 4 uM in the G1 phase of cell cycle.
For assay [8], the species on record is Homo sapiens. The experiment in a line: The compound was evaluated for the percent cell cycle fraction when human hepatoma SK hep-1 cells were treated with the compound for 12 hours at a concentration of 4 uM in the S phase of cell cycle.
The species named for assay [9] is Homo sapiens. The experiment in a line: The compound was evaluated for the percent cell cycle fraction when human hepatoma SK hep-1 cells were treated with the compound for 6 hours at a concentration of 4 uM in the G2/M phase of cell cycle.
In assay [10] the test system is SK-HEP1. The experiment in a line: The compound was evaluated for the percent cell cycle fraction when human hepatoma SK hep-1 cells were treated with the compound for 6 hours at a concentration of 4 uM in the S phase of cell cycle.
Assay [11] concerns SK-HEP1. The experiment in a line: The compound was evaluated for the percent cell cycle fraction when human hepatoma SK hep-1 cells were treated with the compound for 24 hours at a concentration of 4 uM in the G2/M phase of cell cycle.
Assay [12] has as its system SK-HEP1. Kind of assay: The compound was evaluated for the percent cell cycle fraction when human hepatoma SK hep-1 cells were treated with the compound for 0 hr at a concentration of 4 uM in the G2/M phase of cell cycle.

Consider `O=C1C=CC(=O)c2c(O)c(Cl)c(Cl)c(O)c21`, for which the Cell cycle fraction in assay [1] stood at 70%; in assay [2], 16%; in assay [3], 71%; in assay [4] it was 13%; in assay [5], 48%; in [6] it was 21%. Besides, the Cell cycle fraction was determined as 54% in assay [7]; 14% in [8]; 26% in [9]; 20% in assay [10]; 16% in [11]; 31% in [12].
